Measured values reported in patent publication US6737383B1, “Herbicidal oxadiazolidines” (priority 1999, dated 2004).

Assays:
[1] = test system: bedstraw; experiment: Test B pre/postemergence bedstraw; assay type: in vivo, Galium aparine
Summary of the method: (§1)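 Test chemicals in a non-phytotoxic solvent mixture with surfactant were sprayed preemergence onto planted seeds and postemergence onto plants 2 to 18 cm tall (1- to 4-leaf stage). After twelve to sixteen days in a greenhouse, injury was visually rated against untreated controls from 0 (no effect) to 10 (complete control).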

[2] = test system: blackgrass; experiment: Test B pre/postemergence blackgrass; assay type: in vivo, Alopecurus myosuroides
Summary of the method: as §1

[3] = test system: surinam grass; experiment: Test B pre/postemergence surinam grass; assay type: in vivo, Brachiaria decumbens
Summary of the method: as §1

[4] = test system: cocklebur; experiment: Test B pre/postemergence cocklebur; assay type: in vivo, Xanthium strumarium
Summary of the method: as §1

[5] = test system: corn; experiment: Test B pre/postemergence corn; assay type: in vivo, Zea mays
Summary of the method: as §1

[6] = test system: crabgrass; experiment: Test B pre/postemergence crabgrass; assay type: in vivo, Digitaria sanguinalis
Summary of the method: as §1

[7] = test system: pigweed; experiment: Test B pre/postemergence pigweed; assay type: in vivo, Amaranthus retroflexus
Summary of the method: as §1

[8] = test system: rape; experiment: Test B pre/postemergence rape; assay type: in vivo, Brassica napus
Summary of the method: as §1

[9] = test system: soybean; experiment: Test B pre/postemergence soybean; assay type: in vivo, Glycine max
Summary of the method: as §1

[10] = test system: sugar beet; experiment: Test B pre/postemergence sugar beet; assay type: in vivo, Beta vulgaris; conditions: for Plant response rating, Sugarbeets: Rate 250 g/ha
Summary of the method: as §1

[11] = test system: velvetleaf; experiment: Test B pre/postemergence velvetleaf; assay type: in vivo, Abutilon theophrasti; conditions: for Plant response rating, Velvetleaf: Rate 250 g/ha
Summary of the method: as §1

[12] = test system: wheat; experiment: Test B pre/postemergence wheat; assay type: in vivo, Triticum aestivum; conditions: for Plant response rating, Wheat: Rate 250 g/ha
Summary of the method: as §1

[13] = test system: wild oat; experiment: Test B pre/postemergence wild oat; assay type: in vivo, Avena fatua; conditions: for Plant response rating, Wild oats: Rate 250 g/ha
Summary of the method: as §1

[14] = test system: purple nutsedge; experiment: Test B pre/postemergence purple nutsedge; assay type: in vivo, Cyperus rotundus
Summary of the method: as §1

[15] = test system: smallflower flatsedge; experiment: Test B flood test smallflower flatsedge; assay type: in vivo, Cyperus difformis
Summary of the method: (§2)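 Each value is a visual injury score relative to controls, with 10 meaning complete control and 0 no effect. Evaluation took place twelve to sixteen days after the 2-leaf-stage plants were treated and kept in the greenhouse.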

[16] = test system: bamyardgrass; experiment: Test B flood test barnyardgrass; assay type: in vivo, Echinochloa crus-galli
Summary of the method: as §2

[17] = Postemergence, Rate 62 g/ha, scale 0 to 10, 0 is no effect, 10 is complete control
[18] = Preemergence, Rate 31 g/ha, visual rating, scale 0 to 10 (0 no effect, 10 complete control)
[19] = Preemergence, Rate 62 g/ha, scale 0 to 10 (0 no effect, 10 complete control)
[20] = Preemergence, Rate 125 g/ha, scale 0 to 10 (0 no effect, 10 complete control)
[21] = Preemergence, Rate 250 g/ha, scale of 0 to 10 where 0 is no effect and 10 is complete control
[22] = Rate 31 g/ha, Postemergence, scale 0 to 10
[23] = Postemergence, Rate 125 g/ha, scale of 0 to 10 where 0 is no effect and 10 is complete control
[24] = Postemergence, Rate 250 g/ha, scale 0 to 10, 0 no effect, 10 complete control
[25] = Rate 250 g/ha, Postemergence, scale 0 to 10, 0 is no effect, 10 is complete control
[26] = Preemergence, Rate 125 g/ha, 0 is no effect, 10 is complete control
[27] = Preemergence, scale of 0 to 10 where 0 is no effect and 10 is complete control
[28] = Postemergence, scale 0 to 10, 0 is no effect, 10 is complete control

CC(C)N(C(=O)n1oc(=O)n(-c2cnn(C)c2)c1=O)c1ccc(F)cc1 [Compound 98]
Bedstraw plant response rating [1, 17]: 0
Bedstraw plant response rating [1, 18]: 0
Bedstraw plant response rating [1, 19]: 0
Plant response rating, Bedstraw [1, 20]: 0
Plant response rating, Bedstraw [1, 21]: 0
Bedstraw plant response rating [1, 22]: 0
Blackgrass plant response rating [2, 17]: 0
Blackgrass plant response rating [2, 23]: 0
Blackgrass plant response rating [2, 24]: 0
Blackgrass plant response rating [2, 18]: 0
Blackgrass plant response rating [2, 19]: 2
Plant response rating, Blackgrass [2, 20]: 6
Plant response rating, Blackgrass [2, 21]: 8
Blackgrass plant response rating [2, 22]: 0
B. signalgrass plant response rating [3, 17]: 0
B. signalgrass plant response rating [3, 24]: 0
B. signalgrass plant response rating [3, 18]: 0
B. signalgrass plant response rating [3, 19]: 0
Plant response rating, B. signalgrass [3, 20]: 0
Plant response rating, B. signalgrass [3, 21]: 0
B. signalgrass plant response rating [3, 22]: 0
B. signalgrass plant response rating ([3]; Rate 125 g/ha, Postemergence, scale 0 to 10, 0 no effect, 10 complete control): 0
Cocklebur plant response rating [4, 17]: 0
Cocklebur plant response rating [4, 23]: 0
Cocklebur plant response rating [4, 24]: 0
Cocklebur plant response rating [4, 18]: 0
Cocklebur plant response rating [4, 19]: 0
Plant response rating, Cocklebur [4, 20]: 0
Plant response rating, Cocklebur [4, 21]: 0
Cocklebur plant response rating [4, 22]: 0
Corn plant response rating [5, 17]: 0
Corn plant response rating [5, 23]: 0
Corn plant response rating [5, 24]: 0
Corn plant response rating [5, 18]: 0
Corn plant response rating [5, 19]: 0
Plant response rating, Corn [5, 20]: 0
Plant response rating, Corn [5, 21]: 0
Corn plant response rating [5, 22]: 0
Crabgrass plant response rating [6, 17]: 0
Crabgrass plant response rating [6, 23]: 0
Crabgrass plant response rating [6, 24]: 2
Crabgrass plant response rating [6, 18]: 2
Crabgrass plant response rating [6, 19]: 4
Plant response rating, Crabgrass [6, 20]: 7
Plant response rating, Crabgrass [6, 21]: 8
Crabgrass plant response rating [6, 22]: 0
Redroot pigweed plant response rating [7, 17]: 0
Redroot pigweed plant response rating [7, 23]: 0
Redroot pigweed plant response rating [7, 18]: 0
Redroot pigweed plant response rating [7, 19]: 4
Plant response rating, Redroot pigweed [7, 20]: 4
Plant response rating, Redroot pigweed [7, 21]: 5
Redroot pigweed plant response rating [7, 22]: 0
Plant response rating, Redroot pigweed [7, 25]: 0
Rape plant response rating [8, 17]: 0
Rape plant response rating [8, 23]: 0
Rape plant response rating [8, 24]: 0
Rape plant response rating [8, 18]: 0
Rape plant response rating [8, 19]: 0
Plant response rating, Rape [8, 20]: 0
Plant response rating, Rape [8, 21]: 0
Rape plant response rating [8, 22]: 0
Soybean plant response rating [9, 17]: 1
Soybean plant response rating [9, 23]: 1
Soybean plant response rating [9, 18]: 0
Soybean plant response rating [9, 19]: 0
Plant response rating, Soybean [9, 20]: 0
Plant response rating, Soybean [9, 21]: 0
Plant response rating, Soybean [9, 25]: 1
Sugarbeets plant response rating [10, 17]: 0
Sugarbeets plant response rating [10, 23]: 0
Sugarbeets plant response rating [10, 18]: 0
Sugarbeets plant response rating [10, 19]: 0
Sugarbeets plant response rating (0 to 10 scale) [10, 26]: 0
Plant response rating, Sugarbeets [10, 27]: 3
Plant response rating, Sugarbeets [10, 28]: 0
Velvetleaf plant response rating [11, 17]: 0
Velvetleaf plant response rating [11, 23]: 0
Velvetleaf plant response rating [11, 18]: 0
Velvetleaf plant response rating [11, 19]: 0
Velvetleaf plant response rating (0 to 10 scale) [11, 26]: 0
Plant response rating, Velvetleaf [11, 27]: 2
Plant response rating, Velvetleaf [11, 28]: 0
Wheat plant response rating [12, 17]: 0
Wheat plant response rating [12, 23]: 0
Wheat plant response rating [12, 18]: 0
Wheat plant response rating [12, 19]: 0
Wheat plant response rating (0 to 10 scale) [12, 26]: 0
Plant response rating, Wheat [12, 27]: 1
Plant response rating, Wheat [12, 28]: 0
Wild oats plant response rating [13, 17]: 0
Wild oats plant response rating [13, 23]: 0
Wild oats plant response rating [13, 18]: 0
Wild oats plant response rating [13, 19]: 0
Wild oats plant response rating (0 to 10 scale) [13, 26]: 0
Plant response rating, Wild oats [13, 27]: 2
Plant response rating, Wild oats [13, 28]: 0
Nutsedge plant response rating [14, 17]: 0
Nutsedge plant response rating [14, 23]: 0
Nutsedge plant response rating [14, 24]: 0
Nutsedge plant response rating [14, 18]: 0
Nutsedge plant response rating [14, 19]: 0
Plant response rating, Nutsedge [14, 20]: 0
Plant response rating, Nutsedge [14, 21]: 0
Nutsedge plant response rating [14, 22]: 0
S. Flatsedge plant response rating ([15]; Postemergence (flood test species), Rate 125 g/ha, scale of 0 to 10 where 0 is no effect and 10 is complete control): 8
S. Flatsedge plant response rating [15, 17]: 0
Plant response rating, S. Flatsedge ([15]; Rate 250 g/ha, Postemergence (flood test), scale 0 to 10, 0 is no effect, 10 is complete control): 8
Barnyardgrass plant response rating [16, 17]: 5
Barnyardgrass plant response rating ([16]; Rate 31 g/ha, Postemergence section (flood test species), scale 0 to 10): 3
Barnyardgrass plant response rating ([16]; Rate 125 g/ha, Postemergence section (flood test species), scale 0 to 10, 0 no effect, 10 complete control): 9
Barnyardgrass plant response rating ([16]; flood test, listed under Postemergence, Rate 250 g/ha, scale 0 to 10, 0 no effect, 10 complete control): 9
